Structures are written as SMILES. “And” between values parts separate entries of the source, which are not always exact repeats. Equal values may be shown once.

Test in all cases: Kinase inhibition screen, cell-free 33P ATP assay at 10 μM
Common to all, as to type: biochemical

For experiment [1], the target named is 140 purified human kinases (Homo sapiens, UniProt P50750). An outline of the steps:
(§1)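 Radiometric ^33P ATP cell-free format with purified enzymes; both complexes run at 10 μM in duplicate, results plotted on a kinome map via HGNC symbols.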

Experiment [2] has as its target T1, 140 purified human kinases (Homo sapiens, UniProt P54753).
T1 sequence (P54753 34-998): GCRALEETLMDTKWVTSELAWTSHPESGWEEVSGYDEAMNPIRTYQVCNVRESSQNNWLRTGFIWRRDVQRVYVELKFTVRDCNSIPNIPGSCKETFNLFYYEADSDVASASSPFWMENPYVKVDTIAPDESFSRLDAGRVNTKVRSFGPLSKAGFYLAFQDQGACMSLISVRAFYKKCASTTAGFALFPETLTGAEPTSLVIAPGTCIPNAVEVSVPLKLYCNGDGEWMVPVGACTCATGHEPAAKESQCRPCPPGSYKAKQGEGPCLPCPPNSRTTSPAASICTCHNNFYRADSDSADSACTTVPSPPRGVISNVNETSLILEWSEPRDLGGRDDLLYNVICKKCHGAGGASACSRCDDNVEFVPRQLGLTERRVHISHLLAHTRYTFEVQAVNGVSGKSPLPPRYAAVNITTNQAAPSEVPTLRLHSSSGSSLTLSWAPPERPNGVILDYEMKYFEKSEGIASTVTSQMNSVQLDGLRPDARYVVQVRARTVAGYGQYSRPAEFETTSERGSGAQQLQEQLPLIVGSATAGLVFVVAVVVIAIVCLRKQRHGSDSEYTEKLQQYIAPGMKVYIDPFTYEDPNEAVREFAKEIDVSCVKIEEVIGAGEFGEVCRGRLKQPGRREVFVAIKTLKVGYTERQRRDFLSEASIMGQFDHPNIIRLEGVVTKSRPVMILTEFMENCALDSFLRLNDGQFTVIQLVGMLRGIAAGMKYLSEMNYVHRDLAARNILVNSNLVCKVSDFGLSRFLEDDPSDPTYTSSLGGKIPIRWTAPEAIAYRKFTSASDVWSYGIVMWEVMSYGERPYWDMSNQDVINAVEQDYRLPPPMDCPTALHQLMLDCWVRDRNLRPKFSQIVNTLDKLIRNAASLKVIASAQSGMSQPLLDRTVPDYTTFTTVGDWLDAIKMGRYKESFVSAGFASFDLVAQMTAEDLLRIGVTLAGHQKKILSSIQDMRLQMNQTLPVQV
An outline of the steps:
as §1

Experiment [3] addresses T2, 140 purified human kinases (Homo sapiens, UniProt Q14164).
T2 sequence (Q14164 1-716): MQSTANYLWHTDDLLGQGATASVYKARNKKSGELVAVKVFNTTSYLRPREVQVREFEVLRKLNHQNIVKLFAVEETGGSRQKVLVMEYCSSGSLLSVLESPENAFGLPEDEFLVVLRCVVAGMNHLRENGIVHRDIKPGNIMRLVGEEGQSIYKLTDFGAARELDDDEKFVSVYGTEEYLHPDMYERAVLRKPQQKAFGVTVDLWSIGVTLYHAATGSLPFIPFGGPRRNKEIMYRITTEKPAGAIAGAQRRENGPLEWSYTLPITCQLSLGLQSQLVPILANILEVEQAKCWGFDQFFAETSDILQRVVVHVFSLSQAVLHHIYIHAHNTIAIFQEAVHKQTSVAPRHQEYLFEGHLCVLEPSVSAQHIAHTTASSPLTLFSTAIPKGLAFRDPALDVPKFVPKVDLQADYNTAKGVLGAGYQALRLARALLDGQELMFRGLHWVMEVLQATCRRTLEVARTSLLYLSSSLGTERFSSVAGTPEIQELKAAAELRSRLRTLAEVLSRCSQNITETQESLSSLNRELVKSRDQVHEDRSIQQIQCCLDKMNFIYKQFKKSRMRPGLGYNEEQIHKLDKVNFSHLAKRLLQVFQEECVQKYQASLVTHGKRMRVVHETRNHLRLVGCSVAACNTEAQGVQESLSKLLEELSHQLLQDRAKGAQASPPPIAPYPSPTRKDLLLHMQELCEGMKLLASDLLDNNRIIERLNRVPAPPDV
To be noted: IKKe. An outline of the steps: as §1

Experiment [4] has as its target T3, 140 purified human kinases (Homo sapiens, UniProt Q8TD08).
T3 sequence (Q8TD08 1-544): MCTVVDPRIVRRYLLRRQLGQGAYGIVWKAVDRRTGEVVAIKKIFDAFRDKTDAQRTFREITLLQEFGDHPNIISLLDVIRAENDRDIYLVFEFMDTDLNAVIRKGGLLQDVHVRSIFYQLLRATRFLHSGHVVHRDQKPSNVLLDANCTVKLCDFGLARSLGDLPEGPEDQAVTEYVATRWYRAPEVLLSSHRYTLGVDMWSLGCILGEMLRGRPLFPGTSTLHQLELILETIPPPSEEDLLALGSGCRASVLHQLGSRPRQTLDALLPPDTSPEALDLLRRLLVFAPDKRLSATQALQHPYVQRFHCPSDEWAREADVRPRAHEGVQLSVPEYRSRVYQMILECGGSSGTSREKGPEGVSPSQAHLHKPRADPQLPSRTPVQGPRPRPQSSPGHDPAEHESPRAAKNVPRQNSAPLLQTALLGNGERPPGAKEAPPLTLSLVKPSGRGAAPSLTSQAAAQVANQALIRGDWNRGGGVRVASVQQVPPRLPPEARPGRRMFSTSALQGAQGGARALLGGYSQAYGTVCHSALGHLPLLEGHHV
In short, it runs like this:
as §1

Sequence of 140 purified human kinases (Homo sapiens, UniProt P50750) (P50750 whole entry): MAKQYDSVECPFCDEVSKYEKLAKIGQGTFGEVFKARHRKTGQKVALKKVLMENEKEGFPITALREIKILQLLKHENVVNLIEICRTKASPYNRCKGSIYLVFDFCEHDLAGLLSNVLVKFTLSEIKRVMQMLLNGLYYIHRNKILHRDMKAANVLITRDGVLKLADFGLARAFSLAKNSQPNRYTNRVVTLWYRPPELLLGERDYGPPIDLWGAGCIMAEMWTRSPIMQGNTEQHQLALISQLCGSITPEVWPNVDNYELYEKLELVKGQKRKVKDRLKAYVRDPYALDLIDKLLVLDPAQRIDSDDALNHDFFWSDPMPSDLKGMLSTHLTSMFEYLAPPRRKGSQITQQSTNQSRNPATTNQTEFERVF

In the case of `[Cu+2].[Cu+2].[Cu+2].c1ccc(-c2csc(NCCN(CCNc3nc(-c4ccccn4)cs3)CCNc3nc(-c4ccccn4)cs3)n2)nc1.c1ccc(-c2csc(NCCN(CCNc3nc(-c4ccccn4)cs3)CCNc3nc(-c4ccccn4)cs3)n2)nc1` [[L2Cu3]6+], the “% Activation, Mean value” turned out to be 18% in experiment [1] (CDK9-Cyclin T1) and 27% in experiment [4] (ERK8). The “% Inhibition Run 1” value in experiment [1] (CDK9-Cyclin T1) is on record as -1.8%; in experiment [2] (EPH-B3) it was 12.5%; in experiment [3], 69.9%; in experiment [4] (ERK8), -16.9%. The “% Inhibition Run 2” value is listed as -34.5% in experiment [1] (CDK9-Cyclin T1), 19.2% in experiment [2] (EPH-B3), 53.3% in experiment [3] and -37.3% in experiment [4] (ERK8). The “% Inhibition, Mean” value in experiment [1] (CDK9-Cyclin T1) is -18%; in experiment [2] (EPH-B3), 16%; in experiment [3], 62%; in experiment [4] (ERK8) it was -27%. In addition, the mean % activity is recorded as 118% in experiment [1] (CDK9-Cyclin T1), 84% in experiment [2] (EPH-B3), 38% in experiment [3] and 127% in experiment [4] (ERK8). The “% activity” value was determined as 101.8% in experiment [1] (CDK9-Cyclin T1, Run 1); 134.5% in experiment [1] (CDK9-Cyclin T1, Run 2); 87.5% in experiment [2] (EPH-B3, Run 1); 80.8% in experiment [2] (EPH-B3, Run 2); 30.1% in experiment [3] (Run 1); 46.7% in experiment [3] (Run 2). For the same compound, the “% activity” value in experiment [4] (ERK8, Run 1) is given as 116.9%; in experiment [4] (ERK8, Run 2), 137.3%. The “% Activity Run 1” value in experiment [1] (CDK9-Cyclin T1, 10 µM) was 101.80%; in experiment [4] (ERK8, 10 µM), 116.90%. The “% Activity Run 2” value in experiment [1] (CDK9-Cyclin T1, 10 µM) came out at 134.50%; in experiment [4] (ERK8, 10 µM) it was 137.30%.
As to `CC(=O)[O-].CC(=O)[O-].CC(=O)[O-].CC(=O)[O-].CC(=O)[O-].CC(=O)[O-].[Zn+2].[Zn+2].[Zn+2].c1ccc(-c2csc(NCCN(CCNc3nc(-c4ccccn4)cs3)CCNc3nc(-c4ccccn4)cs3)n2)nc1.c1ccc(-c2csc(NCCN(CCNc3nc(-c4ccccn4)cs3)CCNc3nc(-c4ccccn4)cs3)n2)nc1` [[L2Zn3]6+], the “% Activation, Mean value” in experiment [1] (CDK9-Cyclin T1) is recorded as 6%. Also, the “% Inhibition, Mean” value in experiment [1] (CDK9-Cyclin T1) is on record as -6%; in experiment [2] (EPH-B3), 51%; in experiment [3], 21%; in experiment [4] (ERK8) it was 15%. The mean % activity in experiment [1] (CDK9-Cyclin T1) is on record as 106%; in experiment [2] (EPH-B3), 49%; in experiment [3] it was 79%; in experiment [4] (ERK8), 85%. Moreover, the “% activity” value is 96% and 117% in experiment [1] (CDK9-Cyclin T1, duplicate runs); 41% and 56% in experiment [2] (EPH-B3, duplicate runs); 69% and 89% in experiment [3] (duplicate runs); 86% and 85% in experiment [4] (ERK8, duplicate runs). Further, the “% Inhibition, Run 1 / Run 2” value is 59% and 44% in experiment [2] (EPH-B3); 15% in experiment [4] (ERK8).

For the origin of these results see paper PMC8222254, “Self-assembly of an anion receptor with metal-dependent kinase inhibition and potent in vitro anti-cancer properties” (Nature Communications, 2021).
